Assay results taken from US20050054103A1, “Expansion of renewable stem cell populations using modulators of PI 3-kinase” (priority 2003, published 2005).

Tests used:
HL-60 cells = assay: Copper determination in chelator treated cells (atomic absorption); type: cell-based, human; details: for activity at 20 µM / activity at 100 µM / activity at 500 µM: Homo sapiens, HL-60, read-out: Average Intracellular Cu (% of control)
Procedure: Copper Determination: Cells were harvested by centrifugation at 1000×g for 5 minutes. The cell pellet was washed three times by re-suspending the cells in PBS (Ca^++ and Mg^++ free) and centrifugation at 1000×g. An aliquot containing 2×10^6 cells was then transferred into a metal-free Eppendorf tube and the cells were recovered by centrifugation at 1000×g. The cell pellet was re-suspended in 0.03 M ultra-pure nitric acid to give a concentration of 1×10^7 cells/ml. The cells were homogenized with a high shear mixer (polytron, Kinematica, Switzerland) for 1 minutes to disrupt the cell and release intracellular copper content. Cell samples were vortexed before transferring to a vial autosampler and analyzed in duplicate by a Perkin Elmer graphite furnace atomic absorption spectrophotometer at a wavelength of 324.7 nm. The samples were analyzed against copper standard solution prepared from a commercial stock solution that was diluted with 0.03 M ultra pure nitric acid.
FIG. 44 provides the chemical structure of the various chelators employed in these experiments.

[1] = system: Mouse erythroleukemic cells (MEL); assay: HMBA-induced differentiation of erythroleukemic cells; type: cell-based; details: day 3
Procedure: Mouse erythroleukemic cells (MEL): MEL cells are erythroblast like cells. Following treatment with several chemicals (differentiation inducers) the cells undergo erythroid differentiation and accumulate hemoglobin. […] At day 3 of the culture, the total number of cells and the percentage of hemoglobin-containing cells were determined (Table 7).
On day 3, total cell number and hemoglobin containing (benzidine positive) cells were determined.

CD34 cells = assay: Transition metal chelators in CD34+ cell liquid cultures (cell number, CD34 cells, clonability); type: cell-based, human; details: for cell proliferation and CFUc expansion in long-term CD34 cultures: long term cultures with early cytokines
Procedure: The interphase layer of mononuclear cells were collected, washed three times with Ca/Mg free phosphate buffered saline containing 1% bovine serum albumin (BSA). The cells were incubated for 30 min. at 4° C. with murine monoclonal anti CD34 antibody (0.5 μg/10^6 mononuclear cells) and thereafter isolated using the miniMACS apparatus (Miltenyi-Biotec, Bergisch, Gladbach, Germany) according to the manufacturer's protocol.
Culture procedures: For the expansion of progenitor cells, CD34^+ enriched fractions or unseparated mononuclear cells were seeded at about 1-3×10^4 cells/ml in either alpha minimal essential medium containing 10% preselected fetal calf serum (FCS) (both from GIBCO, Grand Island, N.Y.), or serum-free medium (Progenitor-34 medium, Life Technologies, Grand Island, N.Y.). The media were supplemented with a mixture of growth factors and transition metal chelators. The cultures were incubated at 37° C. in an atmosphere of 5% CO2 in air with extra humidity. Half of the medium was changed weekly with fresh medium containing all the supplements.
Cloning potential evaluations: The cloning potential of cells developed in the liquid culture was assayed, at different intervals, in semi-solid medium. The cells were washed and seeded in 35 mm dishes in methylcellulose containing alpha medium supplemented with recombinant growth factors (SCF, G-CSF, GM-CSF and EPO). Following 2 weeks incubation, the cultures were scored with an inverted microscope. Colonies were classified as blast, mixed, erythroid, myeloid, and megakaryocytic, according to their cellular composition.
Morphological assessment: In order to characterize the resulting culture populations, aliquots of cells were deposited on a glass slide (cytocentrifuge, Shandon, Runcorn, UK), fixed and stained in May-Grunwald Giemsa. Other aliquots were stained by benzidine for intracellular hemoglobin.
Immunofluorescence staining: At different intervals, cells from the liquid cultures were assayed for CD34 antigen. Aliquots were harvested, washed and incubated on ice with FITC-labeled anti CD45 monoclonal antibody and either PE-labeled anti CD34 (HPCA-2) monoclonal antibody or PE-labeled control mouse Ig. After incubation, red cells were lysed with lysing solution, while the remaining cells were washed and analyzed by flow cytometer.
Flow cytometry: Cells were analyzed and sorted using FACStar^plus flow cytometer (Becton-Dickinson, Immunofluorometry systems, Mountain View, Calif.). Cells were passed at a rate of 1,000 cells/second through a […] nozzle, using saline as the sheath fluid. […] The PMTs was set at the appropriate voltage. Logarithmic amplification was applied for measurements of fluorescence and linear amplification—for forward light scatter. At least 10^4 cells were analyzed.
Cord blood-derived CD34 cells were plated in liquid culture in the presence of: FL—50 ng/ml, SCF—50 ng/ml, IL-6—50 ng/ml, with or without IL-3—20 ng/ml, with or without TEPA—10 μM. On day 7, the percentage of CD34 cells and the total cell number were determined. Aliquots equivalent to 1×10^3 initiating cells were assayed on days 0 and 7 for colony forming cells (CFU) by cloning in semi-solid medium. CFU expansion represents the ratio of CFU present on day 7 to CFU present on day 0.
CD34^+ cells derived from human neonatal cord blood were purified by immunomagnetic method and then cultured in liquid medium supplemented with cytokines either with or without transition metal chelators. At weekly intervals, the cultures were demi-depopulated by removing half of the culture content (supernatant and cells) and replacing it with fresh medium, cytokines and the chelators. At the indicated weeks the cellular content of the cultures were quantified for total cells (by a manual microscopic/hemocytometric method), for CD34^+ cells (by immuno-flow cytometry) and for clonogenic cells (by cloning the cells in cytokine-supplemented semi-solid medium).

CD34+ cells [2] = assay: Ex vivo expansion of CD34+ cell enriched cultures with RXR, RAR and RAR+RXR antagonists (CFU, CD34+ counts, FACS); type: cell-based, human
Procedure: Cultures were prepared and maintained as described above.
, the percentage of cells bearing the CD34^+ marker (considered to be mostly committed progenitor cells), as well as the percentage of cells bearing the markers CD34^+/CD38^− and CD34^+Lin^− […]

CD34+ cells [3] = assay: Nicotinamide supplementation of ex-vivo hematopoietic stem/progenitor cell cultures; type: cell-based, human; details: for CD34+ cells per ml: 5 cytokines, re-selected
Procedure: Cultures were prepared and maintained as described above. Nicotinamide was added to cell cultures at concentrations of 1, 5 or 10 mM for up to three weeks culture period. All other procedures including mononuclear cell fraction collection and purification, purification of CD34^+ cells from mononuclear cell fractions, ex-vivo expansion of stem/progenitor cell populations, morphological assessment, surface antigen analysis, determination of CD34, CD38, Lin and other hematopoietic marker expression and cell population calculations were carried out as described in the experimental methods section of Example 1 above.
Hematopoietic CD34+ cell cultures were initiated in the presence of a combination of 5 cytokines, SCF, TPO, FLt3, IL-6 and IL-3, with or without different concentrations of nicotinamide. Following three weeks incubation period, the CD34+ cells were re-selected from culture by affinity re-purification method and were enumerated. […] In addition, the re-selected CD34+ cell fraction was FACS analyzed for stem/progenitor cell markers. The results, presented in FIGS. 15-17 and 18a-b, show substantial increases in the proportion of CD34+/CD38−, CD34+/Lin− and CD34+/(HLA-DR38−) cells in cultures treated with nicotinamide.

[4] = polyamine chelating agents, long-term CD34 cultures (FIGS. 39a-b)
[5] = HX-531 (10^−5M in table head), 3 weeks after seeding

| Compound | Average Intracellular ppb Cu (HL-60 cells; 20 μM chelator) [ppb] | Average Intracellular ppb Cu (HL-60 cells; 100 μM chelator) [ppb] | activity at 20 µM (HL-60 cells; 20 μM chelator) [%] | activity at 100 µM (HL-60 cells; 100 μM chelator) [%] | Average Intracellular ppb Cu (HL-60 cells; 500 μM chelator) [ppb] | activity at 500 µM (HL-60 cells; 500 μM chelator) [%] | other results |
| --- | --- | --- | --- | --- | --- | --- | --- |
| C1CNCCNCCN1.Cl.Cl.Cl [1,4,7-Triazacyclononane trihydrochloride] | 15.8 | 17.7 | 32 | 36 | – | – | – |
| O=C1CC(=O)NCCNCCCNCCN1 [1,4,8,11-Tetraaza cyclotetradecane-5,7-dione] | 37.9 | 27.4 | 77 | 56 | 28.3 | 57 | – |
| C1CNCCCNCCNCCCNC1 [1,4,8,12-tetraaza cyclopentadecane] | 13.4 | 12.1 | 27 | 25 | 9.6 | 19 | – |
| C1COCCNCCOCCN1 [1,7-Dioxa-4,10-diazacyclododecane] | 35.5 | 36.1 | 72 | 73 | 35.0 | 71 | – |
| C1CNCCOCCNCCN1 [1-Oxa-4,7,10-triazacyclododecane] | 39.0 | 22.9 | 79 | 46 | 17.6 | 36 | – |
| C[C@H](CS)C(=O)N1CCC[C@H]1C(=O)O [Captopril, captopril] | – | – | – | – | – | – | Benzidine Positive Cells (%) ([1]; HMBA + chelator 20 μM): 29%; Cells/ml (×10^4) ([1]; HMBA + chelator 20 μM): 34 ×10^4; Benzidine Positive Cells (%) ([1]; HMBA + chelator 40 μM): 12%; Cells/ml (×10^4) ([1]; HMBA + chelator 40 μM): 34 ×10^4 |
| NCCN [EDA, ethylenediamine] | – | – | – | – | – | – | cell proliferation and CFUc expansion in long-term CD34 cultures (CD34 cells): support continuous cell proliferation and long-term generation of CFUc and to delay cell differentiation; concentration with optimal activity (CD34 cells; [4]): 20 µM |
| CC(=O)NCCCCCCNC(C)=O [HMBA, hexamethylene bisacetamide] | – | – | – | – | – | – | Benzidine Positive Cells (%) ([1]; HMBA 4 mM alone): 46%; Cells/ml (×10^4) ([1]; HMBA 4 mM alone): 32 ×10^4 |
| CN1c2ccc([N+](=O)[O-])cc2N=C(c2ccc(C(=O)O)cc2)c2cc3c(cc21)C(C)(C)CCC3(C)C [HX-531, 4-[5H-2,3-(2,5-Dimethyl-2,5-Hexano) 5-Methyl-8-nitrodibenzo [b,e][1,4]diazepin-11-yl) Benzoic acid] | – | – | – | – | – | – | CD34^+ (×10^4) (CD34+ cells [2]; [5]): 167 ×10^4; CFU (×10^3) (CD34+ cells [2]; [5]): 1920 ×10^3; CFU mixed (×10^3) (CD34+ cells [2]; HX-531, 3 weeks after seeding): 120 ×10^3; CD34^+ (×10^4) (CD34+ cells [2]; HX-531, 5 weeks after seeding): 1636 ×10^4; CFU (×10^3) (CD34+ cells [2]; HX-531, 5 weeks after seeding): 8542 ×10^3; CD34^+ (×10^4) (CD34+ cells [2]; HX-531, 9 weeks after seeding): 4977 ×10^4; CFU (×10^3) (CD34+ cells [2]; HX-531, 9 weeks after seeding): 36557 ×10^3; CD34^+ (×10^4) (CD34+ cells [2]; HX-531, 11 weeks after seeding): 4055 ×10^4; CFU (×10^3) (CD34+ cells [2]; HX-531, 11 weeks after seeding): 67338 ×10^3 |
| CCCOc1cc2c(cc1\C(C)=C/C=C/C(C)=C/C(=O)O)C(C)(C)CCC2(C)C [LGN 100754] | – | – | – | – | – | – | activity on ex vivo expansion of stem/progenitor cells (CFU, CD34+, CD34+/38−, CD34+/Lin−) (CD34+ cells [2]; 10^−7 M, with TPO, FLT3, IL-6 and IL-3, 3 and 5 weeks): no activity |
| NCCCN(CCN)CCN [N,N,Bis (2 animoethyl) 1,3 propane diamine] | 10.8 | 13.4 | – | – | – | – | Average Intracellular Cu (% of control) (HL-60 cells; 20 μM chelator): 22%; Average Intracellular Cu (% of control) (HL-60 cells; 100 μM chelator): 27% |
| NCCCNCCCNCCCN [N,N′-bis(3-aminopropyl)-1,3-propanediamine] | 33.8 | 26.2 | 69 | 53 | 27.9 | 57 | – |
| NC(=O)c1cccnc1 [Nicotinamide] | – | – | – | – | – | – | CD34+ cells per ml (CD34+ cells [3]; 1 mM nicotinamide, three weeks): 99×10^4 cells per ml; increase in CD34+/CD38− cells density vs untreated control (CD34+ cells [3]; 1 mM, three weeks): 1.7 fold; increase in CD34+/Lin− cells density vs untreated control (CD34+ cells [3]; 1 mM, three weeks): 10.5 fold; CD34+ cells per ml (CD34+ cells [3]; 5 mM nicotinamide, three weeks): 180×10^4 cells per ml; increase in CD34+/(HLA-DR38−) cells density vs untreated control (CD34+ cells [3]; 5 mM, three weeks): 11.5 fold; increase in CD34+/CD38− cells density vs untreated control (CD34+ cells [3]; 5 mM, three weeks): 51.7 fold; increase in CD34+/Lin− cells density vs untreated control (CD34+ cells [3]; 5 mM, three weeks): 205.5 fold; % of CD34^+/CD38^− of total cells (CD34+ cells [3]; Nicotinamide 5 mM): 9.69%; % of CD34^+/Lin^− of total cells (CD34+ cells [3]; Nicotinamide 5 mM): 4.11%; % of CD34^+/CD38^− of total cells (CD34+ cells [3]; Nicotinamide 10 mM): 34.67%; % of CD34^+/Lin^− of total cells (CD34+ cells [3]; Nicotinamide 10 mM): 16.58% |
| CC(C)(S)[C@@H](N)C(=O)O [PEN, Penicillamine] | – | – | – | – | – | – | cell proliferation and CFUc expansion in long-term CD34 cultures (CD34 cells): sustained cell proliferation and expansion of clonogenic cells; concentration with optimal activity (CD34 cells; transition metal chelating agents, long-term CD34 cultures (FIGS. 40a-b)): 5 µM |
| NCCNCCNCCN [TETA, triethylene-tetramine] | 27.7 | 21.2 | 56 | 43 | 16.8 | 34 | cell proliferation and CFUc expansion in long-term CD34 cultures (CD34 cells): support continuous cell proliferation and long-term generation of CFUc and to delay cell differentiation; concentration with optimal activity (CD34 cells; [4]): 20 µM |
| Copper | – | – | – | – | – | – | effect on TEPA activities (CD34 cells; TEPA-treated cultures supplemented with Copper): reversed |
| Glycyl-glycyl-histidine Cu complex | 202.7 | 582 | – | – | 1278 | – | Average Intracellular Cu (% of control) (HL-60 cells; 20 μM chelator): 411%; Average Intracellular Cu (% of control) (HL-60 cells; 100 μM chelator): 1181%; Average Intracellular Cu (% of control) (HL-60 cells; 500 μM chelator): 2592% |
| Zinc | – | – | – | – | – | – | cell proliferation and CFUc expansion in long-term CD34 cultures (CD34 cells): mimicked the effect of the chelating agents in long term cultures, but to a smaller extent than the chelators themselves |
